Test results: ChEMBL document CHEMBL3600331, “Small molecule inhibits activity of scavenger receptor A: Lead identification and preliminary studies” (Bioorg Med Chem Lett, 2015)
The source made the active and inactive calls. No cut-off for these calls is given here.

Legend:
[1] = molecular target: T1, Macrophage scavenger receptor types I and II (Mus musculus) (UniProt P30204); assay: Inhibition of scavenger receptor A in wild type C57BL/6 mouse BMDC assessed as OVA257-264 peptide-induced T cell activation by measuring IL2 production at 10 uM after 56 hrs by ELISA
T1 sequence (whole entry): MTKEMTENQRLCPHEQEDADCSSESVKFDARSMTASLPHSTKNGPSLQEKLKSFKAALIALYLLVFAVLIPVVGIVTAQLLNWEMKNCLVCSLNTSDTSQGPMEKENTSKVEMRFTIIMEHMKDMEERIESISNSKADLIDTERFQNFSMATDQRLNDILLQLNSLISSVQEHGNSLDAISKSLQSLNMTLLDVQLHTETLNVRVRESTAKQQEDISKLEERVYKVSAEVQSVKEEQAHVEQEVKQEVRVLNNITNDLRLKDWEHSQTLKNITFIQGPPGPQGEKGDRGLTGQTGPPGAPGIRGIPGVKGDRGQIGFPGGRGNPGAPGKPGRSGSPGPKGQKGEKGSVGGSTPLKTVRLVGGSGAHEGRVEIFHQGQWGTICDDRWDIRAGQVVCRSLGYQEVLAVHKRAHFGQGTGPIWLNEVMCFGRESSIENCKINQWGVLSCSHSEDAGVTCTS

[2] = molecular target: T1, Macrophage scavenger receptor types I and II (Mus musculus); assay: Inhibition of scavenger receptor A in wild type C57BL/6 mouse BMDC assessed as OVA257-264 peptide-induced T cell activation by measuring IL2 production at 30 uM after 56 hrs by ELISA
[3] = molecular target: T1, Macrophage scavenger receptor types I and II (Mus musculus); assay: Inhibition of scavenger receptor A in mouse DC1.2 cells assessed as decrease in poly(I:C)-induced activation of STAT1 pretreated for 2 hrs before poly(I:C) stimulation measured after 3 hrs by immunoblotting; type: cell-based
[4] = molecular target: T1, Macrophage scavenger receptor types I and II (Mus musculus); assay: Inhibition of scavenger receptor A in mouse DC1.2 cells assessed as decrease in poly(I:C)-induced activation of IRF3 pretreated for 2 hrs before poly(I:C) stimulation measured after 3 hrs by immunoblotting; type: cell-based
[5] = tested on: B3Z; assay: Inhibition of scavenger receptor A (unknown origin) in mouse B3Z cells assessed as anti-CD3/CD28 antibody-induced T cell activation by measuring transcription of il2 gene after 5 hrs by beta-galactosidase assay; type: cell-based
[6] = tested on: T-cell; assay: Inhibition of OVA257-264 peptide-induced T cell activation in SRA-deficient C57BL/6 mouse BMDC assessed as IL2 production at 10 to 30 uM after 56 hrs by ELISA; type: functional, cell-based
[7] = molecular target: T1, Macrophage scavenger receptor types I and II (Mus musculus); assay: Inhibition of scavenger receptor A in wild type C57BL/6 mouse BMDC assessed as gp100 (25 to 33) peptide-induced T cell activation by measuring IL2 production at 20 uM after 56 hrs by ELISA

Row | inhibition [1] | inhibition [2] | inhibition [3] | inhibition [4] | inhibition [7] | SMILES | inhibition [5] | inhibition [6]
1 | Active | Active | Dose-dependent effect | Dose-dependent effect | Active | O=C(O)c1cc(O)c2c(c1)C(=O)c1cccc(O)c1C2=O | Dose-dependent effect | inactive
2 |  |  |  |  | Active | O=C(O)c1cc(O)c2c(c1)[C@@H]([C@H]1c3cc(C(=O)O)cc(O)c3C(=O)c3c(O[C@@H]4O[C@H](CO)[C@@H](O)[C@H](O)[C@H]4O)cccc31)c1cccc(O[C@@H]3O[C@H](CO)[C@@H](O)[C@H](O)[C@H]3O)c1C2=O |  | 
